Literature values as cited in patent US9238023B2, “Methods for improving health in humans” (Quality IP Holdings, LLC, priority 2012, dated 2016).

Columns and labels:
hGH = conditions: for effect on hGH: other amino acids, literature
GH = conditions: subcutaneous injection of 0.06 IU, GH deficient subjects

N=C(N)NCCC[C@H](N)C(=O)O [arginine]
elevation of serum hGH levels (hGH; 30 g, males): 8.6 fold
increase of hGH levels (hGH; intravenous infusion 183 mg/kg body weight, females): > 20 fold

N[C@@H](Cc1c[nH]cn1)C(=O)O [histidine]
effect on hGH (hGH): marked increases in hGH

NCCCC[C@H](N)C(=O)O [lysine]
effect on hGH (hGH): marked increases in hGH

CSCC[C@H](N)C(=O)O [methionine]
effect on hGH (hGH): marked increases in hGH

NCCC[C@H](N)C(=O)O [ornithine]
effect on hGH (hGH): marked increases in hGH

N[C@@H](Cc1ccccc1)C(=O)O [phenylalanine]
effect on hGH (hGH): marked increases in hGH

HGH: human growth hormone, subcutaneous injection in the treatment of GH deficient subjects
mean levels of GH reached (GH): 0.4 ng/mL
